Laboratory results reported in patent US20160299149A1, “ASSAYS AND METHODS FOR CELL PROLIFERATION-TARGETED TREATMENT THERAPIES” (University of Central Florida Research Foundation, Inc., priority 2015, published 2016).

Key:
[1] = Polyamine transport inhibitor assay 2: PTI blocks uptake of rescuing spermidine into DFMO-treated cells; type: cell-based; conditions: DFMO dosed at its IC50; Spd 1 μM; PTI not above its IC10; relative to untreated control; read-out: cell viability
Description: FIG. 6A is a diagram showing an assay wherein the uptake of rescuing dose of spermidine into DFMO-treated cells is blocked by a PTI (GW 5074).
(§1) DFMO was dosed to give 50% relative viability versus an untreated control, i.e. DFMO is dosed at its IC50 value. Exogenous spermidine (Spd, 1 μM) is added to the DFMO treated cells and provided significant rescue of these cells to >80% viability depending upon the cell line. A successful PTI was able to block the entry of the spermidine rescuing agent into DFMO treated cells and result in a cell viability near the DFMO control (i.e. 50% viability). The inventors identified the following cell viabilities: DFMO only (50%), Spd only (100%), PTI (>90%), DFMO+Spd (>80%), DFMO+Spd+PTI (50%). The PTI provides a dose dependent lowering of cell viability in the presence of DFMO and a rescuing dose of spermidine. […] Identifying cells that respond to exogenous spermidine allow this assay to be possible and the c-myc and ATP13A3 biomarkers help predict these outcomes as well as the Vmax measurements for ^3H Spd import.

[2] = system: L3.6pl, Panc1, CHO and PanO2 cells; experiment: Cell line sensitivity to DFMO and spermidine rescue challenge; type: cell-based; conditions: cells dosed with IC50 dose of DFMO, spermidine 1 μM, read-out: viability level after rescue by exogenous spermidine
[3] = system: MALME-3M cells and MALME-3 control cells; experiment: Spermidine competition / percent viability with compound A; type: cell-based; conditions: 100 μM; MALME-3M and MALME-3
Description: Aminoguanidine (AG) at 1 mM was determined to be non-toxic and was incubated with cells for 24 h prior to compound addition. Control represents the untreated cells. All experiments were performed in triplicate. Spermidine (Spd, 100 μM) was non-toxic to both cell lines. […] Compound A is a valid polyamine transport probe.

AspC-1 [4] = experiment: 3H Spd import Vmax, untreated cells; type: cell-based, human
Source text: (§2) FIG. 10 is a table providing the Relative Protein expression of Cav-1, ATP13A3 and c-myc in human pancreatic cancer cell lines along with the respective Vmax values for ^3H spermidine (Spd) import and the relative affinity Km values determined for spermidine. Entries represent 100%×protein expression/beta actin expression as shown in FIG. 10 along with the Vmax value already provided. The Western blots were quantified by Image J software (NIH) and normalized by dividing by the beta-actin expression level for each cell line. Entries represent protein expression and are expressed in relative %, with the L3.6pl cell expression levels set to 100%.
(§3) FIG. 10 provides a table showing the relative protein expression of Cav-1, ATP13A3 and c-myc in human pancreatic cancer cell lines (normalized by dividing by the relative beta actin expression level) along with the respective Vmax values for ^3H Spd import and Km values. The entries represent 100%×protein expression/beta actin expression is shown in the table along with the Vmax and Km values reported earlier. As mentioned earlier, a strong correlation was found between ATP13A3 expression and the ability of DFMO-treated cells to be rescued by exogenous spermidine (FIG. 8, rightmost column).

BxPC-3 [5] = experiment: 3H Spd import Vmax, untreated cells; type: cell-based, human
Source text: as §2, §3

Capan-1 [6] = experiment: 3H Spd import Vmax, untreated cells; type: cell-based, human
Source text: as §2, §3

HPNE [7] = experiment: 3H Spd import Vmax, untreated cells; type: cell-based, human
Source text: as §2, §3

L3.6pl [8] = experiment: 3H Spd import Vmax, untreated cells; type: cell-based, human
Source text: as §2, §3

Panc-1 [9] = experiment: 3H Spd import Vmax, untreated cells; type: cell-based, human
Source text: as §2, §3

SU86.86 [10] = experiment: 3H Spd import Vmax, untreated cells; type: cell-based, human
Source text: as §2, §3

AspC-1 [11] = experiment: Spermidine rescue of DFMO-treated cells; type: cell-based, human; conditions: DFMO-treated AspC-1 cells
Description: (§4) FIG. 8 provides an illustration and a table showing different cell line sensitivity to DFMO and spermidine rescue challenge. The rescue challenge experiment doses cells with the respective IC50 dose of DFMO for that cell line and measures the viability of cells with and without added spermidine (1 μM). Cell lines without added spermidine give the expected 50% viability due to the presence of DFMO. […] These are highlighted in red. Cell lines with low polyamine transport activity are not rescued to a significant extent even though a rescuing dose of spermidine is available and give viabilities near 50%.
as §1

BxPC-3 [12] = experiment: Spermidine rescue of DFMO-treated cells; type: cell-based, human; conditions: DFMO-treated BxPC-3 cells
Description: as §4, §1

Capan-1 [13] = experiment: Spermidine rescue of DFMO-treated cells; type: cell-based, human; conditions: DFMO-treated Capan-1 cells
Description: as §4, §1

HPNE [14] = experiment: Spermidine rescue of DFMO-treated cells; type: cell-based, human
Description: as §4, §1

L3.6pl [15] = experiment: Spermidine rescue of DFMO-treated cells; type: cell-based, human; conditions: DFMO-treated L3.6pl cells
Description: as §4, §1

Panc-1 [16] = experiment: Spermidine rescue of DFMO-treated cells; type: cell-based, human; conditions: DFMO-treated Panc-1 cells
Description: as §4, §1

SU86.86 [17] = experiment: Spermidine rescue of DFMO-treated cells; type: cell-based, human; conditions: DFMO-treated SU86.86 cells
Description: as §4, §1

Q: For NCCCCNCCCN [Spermidine, spermidine], which viability at 1 μM [1] is on record?
A: 100%

Q: What about the viability at 1 μM [2] of the same compound?
A: > 80%

Q: And the “toxicity to both cell lines” value [3]?
A: non-toxic

Q: And the “Vmax of ^3H Spd untreated cells” value (AspC-1 [4])?
A: 2.3 nmoles Spd/mg protein/min

Q: And the “Vmax of ^3H Spd untreated cells” value (BxPC-3 [5])?
A: 9.0 nmoles Spd/mg protein/min

Q: And the “Vmax of ^3H Spd untreated cells” value (Capan-1 [6])?
A: 0.8 nmoles Spd/mg protein/min

Q: And the “Vmax of ^3H Spd untreated cells” value (HPNE [7])?
A: 1.8 nmoles Spd/mg protein/min

Q: What about the “Vmax of ^3H Spd untreated cells” value (L3.6pl [8]) of the same compound?
A: 24 nmoles Spd/mg protein/min

Q: What about the “Vmax of ^3H Spd untreated cells” value (Panc-1 [9]) of the same compound?
A: 13 nmoles Spd/mg protein/min

Q: And the “Vmax of ^3H Spd untreated cells” value (SU86.86 [10])?
A: 7.0 nmoles Spd/mg protein/min

Q: And the Spd rescue index (AspC-1 [11])?
A: Not rescuable

Q: And the Spd rescue index (BxPC-3 [12])?
A: low

Q: What about the Spd rescue index (Capan-1 [13]) of the same compound?
A: Not rescuable

Q: And the Spd rescue index (HPNE [14])?
A: very low

Q: And the Spd rescue index (L3.6pl [15])?
A: high

Q: What about the Spd rescue index (Panc-1 [16]) of the same compound?
A: med

Q: What about the Spd rescue index (SU86.86 [17]) of the same compound?
A: med
